Literature values in patent US6811840B1, “Decorative transfer process” (Stahls' Inc., priority 1996, dated 2004).

solubility in water (in words) | SMILES | solubility in water (at 20° C.)
insoluble in water | Cc1ccccc1/N=N/c1ccc(/N=N/c2c(O)ccc3ccccc23)c(C)c1 [Oil Red 234] | 
insoluble in water | CC1(C)Nc2cccc3c(N=Nc4ccc(N=Nc5ccccc5)c5ccccc45)ccc(c23)N1 [Sudan Black X60] | 

The next lines start with the compound.

SMILES | solubility in water (in words) | solubility in water (at 20° C.)
CCCCCNc1ccc(NCCCCC)c2c1C(=O)c1ccccc1C2=O [Oil Blue N] | insoluble in water | 
CCCCNc1ccc(NCCCC)c2c1C(=O)c1ccccc1C2=O [Sudan Blue 670] |  | less than 1 gram of dye per liter of water
Oc1ccc2ccccc2c1N=Nc1ccccc1 [Sudan Orange 220] | insoluble in water | 
